Measured values as given in the supplement of paper PMC11451515.

System: NOMO1
Test: cell viability relative to DMSO control; higher = less cytotoxic
Conditions: 48 h
Method in brief: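 Before seeding, each leukemia line was adapted for at least four passages in each medium. NOMO1 or SEM cells (500 cells/well) and P12-Ichikawa cells (1000 cells/well) went into 1536-well plates at 5 μl, then received library compounds in DMSO by pin dosing across 11 threefold concentrations, 47 μM to 0.79 nM. Readout was CellTiter-Glo One luminescence after 48 h at 37°C, and viability is given as a per-plate percentage of DMSO wells, with cell-free wells as background.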

[1] = HPLM + 10% dialyzed FBS, 0.000781 µM
[2] = HPLM + 10% dialyzed FBS, 0.00234 µM
[3] = HPLM + 10% dialyzed FBS, 0.00702 µM
[4] = HPLM + 10% dialyzed FBS, 0.0211 µM
[5] = HPLM + 10% dialyzed FBS, 0.0632 µM
[6] = HPLM + 10% dialyzed FBS, 0.19 µM
[7] = HPLM + 10% dialyzed FBS, 0.569 µM
[8] = HPLM + 10% dialyzed FBS, 1.71 µM
[9] = HPLM + 10% dialyzed FBS, 5.12 µM
[10] = HPLM + 10% dialyzed FBS, 15.4 µM
[11] = HPLM + 10% dialyzed FBS, 46.1 µM
[12] = RPMI 5 mM glucose + 10% FBS, 0.000781 µM
[13] = RPMI 5 mM glucose + 10% FBS, 0.00234 µM
[14] = RPMI 5 mM glucose + 10% FBS, 0.00702 µM
[15] = RPMI 5 mM glucose + 10% FBS, 0.0211 µM
[16] = RPMI 5 mM glucose + 10% FBS, 0.0632 µM
[17] = RPMI 5 mM glucose + 10% FBS, 0.19 µM
[18] = RPMI 5 mM glucose + 10% FBS, 0.569 µM
[19] = RPMI 5 mM glucose + 10% FBS, 1.71 µM
[20] = RPMI 5 mM glucose + 10% FBS, 5.12 µM
[21] = RPMI 5 mM glucose + 10% FBS, 15.4 µM
[22] = RPMI 5 mM glucose + 10% FBS, 46.1 µM
[23] = RPMI 5 mM glucose + 10% dialyzed FBS, 0.000781 µM
[24] = RPMI 5 mM glucose + 10% dialyzed FBS, 0.00234 µM
[25] = RPMI 5 mM glucose + 10% dialyzed FBS, 0.00702 µM
[26] = RPMI 5 mM glucose + 10% dialyzed FBS, 0.0211 µM
[27] = RPMI 5 mM glucose + 10% dialyzed FBS, 0.0632 µM
[28] = RPMI 5 mM glucose + 10% dialyzed FBS, 0.19 µM
[29] = RPMI 5 mM glucose + 10% dialyzed FBS, 0.569 µM
[30] = RPMI 5 mM glucose + 10% dialyzed FBS, 1.71 µM
[31] = RPMI 5 mM glucose + 10% dialyzed FBS, 5.12 µM
[32] = RPMI 5 mM glucose + 10% dialyzed FBS, 15.4 µM
[33] = RPMI 5 mM glucose + 10% dialyzed FBS, 46.1 µM

SMILES | cell viability [1] [%] | cell viability [2] [%] | cell viability [3] [%] | cell viability [4] [%] | cell viability [5] [%] | cell viability [6] [%] | cell viability [7] [%] | cell viability [8] [%] | cell viability [9] [%] | cell viability [10] [%] | cell viability [11] [%] | cell viability [12] [%] | cell viability [13] [%] | cell viability [14] [%] | cell viability [15] [%] | cell viability [16] [%] | cell viability [17] [%] | cell viability [18] [%] | cell viability [19] [%] | cell viability [20] [%] | cell viability [21] [%] | cell viability [22] [%] | cell viability [23] [%] | cell viability [24] [%] | cell viability [25] [%] | cell viability [26] [%] | cell viability [27] [%] | cell viability [28] [%] | cell viability [29] [%] | cell viability [30] [%] | cell viability [31] [%] | cell viability [32] [%] | cell viability [33] [%]
COc1cc([C@@H](CC(=O)O)c2ccc(C)c(CN3C[C@@H](C)Oc4ccccc4[S+]3(=O)[O-])c2)cc2nnn(C)c12 | 123 | 120 | 111 | 121 | 110 | 118 | 96.8 | 119 | 66.6 | 30.3 | 26.5 | 114 | 117 | 117 | 98.7 | 97.1 | 102 | 104 | 99.3 | 92.4 | 90.3 | 91.1 | 102 | 118 | 116 | 104 | 113 | 99.5 | 100 | 101 | 86.2 | 79.6 | 75.4
N[S+](=O)([O-])c1cc2c(cc1Cl)NC(C(Cl)Cl)N[S+]2(=O)[O-] (configuration not stated) | 96.9 | 107 | 113 | 117 | 111 | 135 | 136 | 130 | 121 | 125 | 124 | 105 | 96.1 | 105 | 107 | 102 | 103 | 123 | 108 | 102 | 125 | 110 | 112 | 114 | 109 | 118 | 112 | 118 | 120 | 126 | 125 | 141 | 120
CC1=C(/C=C/C(C)=C/C=C/C(C)=C\C(=O)O)C(C)(C)CCC1 | 85.3 | 99.5 | 85.6 | 92.5 | 105 | 96.2 | 97.1 | 84.3 | 84.2 | 83.4 | 97.4 | 75.9 | 82.4 | 78.7 | 86.3 | 89.5 | 97.2 | 93.6 | 84.1 | 84.3 | 86.6 | 80.5 | 82 | 90.6 | 86 | 102 | 93.2 | 87.9 | 95.1 | 87.2 | 76.6 | 87.1 | 77.3
COc1cc(Nc2c(C#N)cnc3cc(OCCCN4CCN(C)CC4)c(OC)cc23)c(Cl)cc1Cl | 123 | 121 | 118 | 111 | 116 | 105 | 121 | 83.6 | 52.1 | 9.63 | 7.18 | 109 | 115 | 126 | 119 | 126 | 118 | 112 | 106 | 82.4 | 13.7 | 7.22 | 103 | 105 | 112 | 113 | 116 | 114 | 112 | 120 | 85.8 | 26 | 10.6
O=C(CCCCCCC(=O)Nc1ccc([C@H]2O[C@@H](CSc3nc(-c4ccccc4)c(-c4ccccc4)o3)C[C@@H](c3ccc(CO)cc3)O2)cc1)NO | – | – | – | – | – | – | – | – | – | – | – | 120 | 135 | 117 | 124 | 117 | 131 | 127 | 111 | 108 | 12.5 | 5.57 | – | – | – | – | – | – | – | – | – | – | –
COc1ccc(OC)c(-c2nnc3ccc(-c4ccc(OC)c(O[C@@H]5CCOC5)c4)nn23)c1 | – | – | – | – | – | – | – | – | – | – | – | – | – | – | – | – | – | – | – | – | – | – | 123 | 120 | 140 | 128 | 137 | 140 | 134 | 147 | 137 | 145 | 98.3
N#Cc1ccc(Oc2ccc3c(c2)COB3O)cc1 | – | – | – | – | – | – | – | – | – | – | – | 122 | 132 | 119 | 120 | 150 | 137 | 144 | 126 | 133 | 129 | 57.3 | – | – | – | – | – | – | – | – | – | – | –
OC[C@H]1O[C@H](C[C@@H]1O)N2\C=C(F)/C(=O)NC2=O | 115 | 120 | 120 | 70.9 | 51.9 | 46.8 | 52.1 | 50.4 | 35.5 | 27.8 | 17.9 | 121 | 118 | 114 | 118 | 120 | 89.9 | 82.6 | 72.7 | 44.1 | 39.1 | 30.2 | 140 | 119 | 106 | 79.2 | 63.9 | 46.4 | 47 | 34.4 | 24.6 | 27.6 | 20.1
O=C(CS(=O)Cc1ccco1)NC/C=C\COc1cc(CN2CCCCC2)ccn1 (configuration not stated) | 85 | 105 | 101 | 102 | 93.3 | 113 | 93.8 | 98.9 | 89 | 94.1 | 92.9 | 89.7 | 87.5 | 97.2 | 95.7 | 87.1 | 98.2 | 87.8 | 89.3 | 94.8 | 93.3 | 92.8 | 90 | 103 | 95 | 108 | 105 | 103 | 108 | 97.4 | 90.9 | 105 | 99.4
Cc1c(-c2cccc3c(CCCOc4cccc5ccccc45)c(C(=O)O)n(Cc4cccnc4)c23)c(COc2ccc(N3CCN([S+](=O)([O-])N(C)C)CC3)cc2)nn1C | 88.7 | 85.4 | 83.8 | 94.1 | 108 | 86.3 | 85.9 | 74.2 | 89.2 | 73.8 | 55.4 | 92.5 | 97.3 | 80.4 | 85.7 | 87.9 | 94.7 | 90.5 | 87.8 | 74.9 | 79.3 | 85.2 | 97 | 97.1 | 92.5 | 96.1 | 95.9 | 94.1 | 86 | 76.7 | 81.4 | 84.7 | 72.5
CC[C@]12CC[C@H]3[C@@H](CCC/4=C/C(=O)CC[C@H]34)[C@@H]1CC[C@@]2(O)C#C | 100 | 92.6 | 101 | 85.8 | 97.1 | 94.4 | 86.6 | 72.4 | 89.2 | 80.4 | 69.8 | 92.7 | 78.8 | 95 | 88.5 | 81.8 | 75.1 | 72.2 | 76.3 | 82.5 | 73.5 | 70.8 | 82.1 | 77.5 | 77.7 | 86.6 | 75.4 | 77.6 | 79.7 | 78.5 | 74.1 | 74.9 | 84.5
Cc1nn(C)c(COc2ccc(N3CCN([S+](=O)([O-])N(C)C)CC3)cc2)c1-c1cccc2c(CCCOc3cccc4ccccc34)c(C(=O)O)n(CCN3CCOCC3)c12 | 96.9 | 107 | 121 | 122 | 124 | 108 | 137 | 101 | 25.9 | 36.8 | 32.1 | 100 | 110 | 105 | 110 | 112 | 105 | 118 | 111 | 25.2 | 108 | 22.8 | 90.6 | 112 | 110 | 116 | 122 | 111 | 117 | 107 | 109 | 119 | 91.8
COc1cccc2c1C(=O)c1c(O)c3c(c(O)c1C2=O)C[C@@](O)(C(=O)CO)C[C@@H]3O[C@H]1C[C@H](N)[C@H](O[C@H]2CCCCO2)[C@H](C)O1 | 124 | 106 | 100 | 135 | 117 | 116 | 117 | 108 | 43 | 113 | 63 | 120 | 128 | 122 | 128 | 114 | 128 | 123 | 125 | 22.9 | 124 | 101 | 119 | 116 | 121 | 115 | 104 | 124 | 106 | 123 | 41.7 | 110 | 102
C[C@@H]1CN(Cc2ccc(F)cc2)[C@@H](C)CN1C(=O)c1cc2c(C(=O)C(=O)N(C)C)cn(C)c2cc1Cl | 103 | 121 | 118 | 119 | 129 | 139 | 139 | 128 | 131 | 123 | 74.8 | 103 | 122 | 118 | 120 | 123 | 124 | 124 | 108 | 114 | 115 | 118 | 125 | 117 | 115 | 118 | 128 | 127 | 124 | 132 | 119 | 127 | 111
C[C@H]1C[C@H]2[C@@H]3CC[C@](O)(C(=O)CO)[C@@]3(C)C[C@H](O)[C@@H]2[C@@]\4(C)/C=C\C(=O)\C=C14 | 82.1 | 110 | 115 | 104 | 113 | 115 | 92.3 | 89.9 | 89.6 | 94.1 | 95.6 | 81.4 | 95.3 | 90.6 | 101 | 104 | 97.1 | 93.1 | 89.5 | 89.5 | 88.4 | 92.8 | 72.9 | 88.5 | 91.4 | 102 | 102 | 93.1 | 100 | 90.4 | 101 | 105 | 84.6
CC[S+](=O)([O-])Nc1ccc2c(c1)/C(=C(/Nc1ccc(CN3CCCCC3)cc1)c1ccccc1)C(=O)N2 | 111 | 114 | 111 | 110 | 113 | 85 | 79.3 | 59.1 | 45.9 | 33.8 | 10.4 | 104 | 102 | 111 | 117 | 99.3 | 49.3 | 47.5 | 53.1 | 47.6 | 39.9 | 18.5 | 99.2 | 102 | 121 | 101 | 104 | 62 | 63.8 | 54.5 | 44.6 | 37.1 | 18.2
